Patent publication US8283481B2, “Inhibitors of a 9-cis epoxycarotenoid dioxygenase” (National Research Council of Canada, priority 2008, dated 2012)

Tests used:
AtNCED3 = test: qRT-PCR transcript level in mannitol stressed plants: AtNCED3; type: in vivo, Arabidopsis thaliana; conditions: 10 and 33 μM, mannitol stress
Method: For each condition to be tested, three hundred wild-type Arabidopsis thaliana Col-0 seeds (LEHLE) were sterilized, vernalized and sewn onto 200 mL of Sunshine Mix #3 (Sun Gro) potting material in an 8×8×4 cm pot. Plants were watered continuously with 25 g/100 mL of 20-20-20 (PlantProdTM) fertilizer and grown at 22° C. with a 16 hour photoperiod for 22 days. Plants were pre-treated with 50 mL/pot of Buffer A (10 mM HEPES pH 6.5) (Sigma)+/-10 or 33 μM test compound for 2 hours. Plants were then soaked with 50 mL/pot of Buffer A containing 0.4 M mannitol (Sigma)+/-10 or 33 μM test compound. Non-treated/non-stressed control plants were simply soaked in Buffer A at the designated time points. Aerial plant tissue was harvested after 6, 12 and 48 hours from the time of initial inhibitor treatment and flash frozen in liquid nitrogen. Half of the tissue samples were lyophilized for metabolite profiling and the other half taken for quantitative reverse-transcription polymerase chain reaction (qRT-PCR) analysis. […] The resulting mRNA was quantified and checked for quality using a Nano-DropTM ND-1000 Spectrophotometer. QuantiTectTM Reverse Transcription Kit (Qiagen) was used to produce cDNA as directed by the manufacturer from 20 ng of starting mRNA. Quantitative PCR was performed on 1 μL of cDNA product using a Bio-Rad iCyclerTM and the QuantiTectTM SYBR Green PCR Kit (Qiagen) coupled with QuantiTectTM Primer Assays (Qiagen) for the gene targets; […]-112304), Rd29B (NM-124609), CYP707A1 (NM-118043), CYP707A3 (NM-123902) and UBQ10 (NM-178968). The pre-validated primer sets are as follows indicated by the GeneGlobe (www1.qiagen.com/GeneGlobe/default.aspx) product name and (catalogue number): At_NCED3-1_SG (QT00769573), At_RD29B-1_SG (QT00840399), At_CYP707A1-1_SG (QT00808339), At_CYP707A3-1_SG (QT00739242), At_UBQ10_va.1_SG (QT01123745). Relative changes in transcript level were normalized using UBQ10 and quantified as previously described.^41

Rd29B = test: qRT-PCR transcript level in mannitol stressed plants: Rd29B; type: in vivo, Arabidopsis thaliana; conditions: 10 and 33 μM, 6 hours post-compound treatment, normalized to UBQ10
Method: (§1) For each condition to be tested, three hundred wild-type Arabidopsis thaliana Col-0 seeds (LEHLE) were sterilized, vernalized and sewn onto 200 mL of Sunshine Mix #3 (Sun Gro) potting material in an 8×8×4 cm pot. Plants were watered continuously with 25 g/100 mL of 20-20-20 (PlantProdTM) fertilizer and grown at 22° C. with a 16 hour photoperiod for 22 days. Plants were pre-treated with 50 mL/pot of Buffer A (10 mM HEPES pH 6.5) (Sigma)+/-10 or 33 μM test compound for 2 hours. Plants were then soaked with 50 mL/pot of Buffer A containing 0.4 M mannitol (Sigma)+/-10 or 33 μM test compound. Non-treated/non-stressed control plants were simply soaked in Buffer A at the designated time points. Aerial plant tissue was harvested after 6, 12 and 48 hours from the time of initial inhibitor treatment and flash frozen in liquid nitrogen. Half of the tissue samples were lyophilized for metabolite profiling and the other half taken for quantitative reverse-transcription polymerase chain reaction (qRT-PCR) analysis. […] The resulting mRNA was quantified and checked for quality using a Nano-DropTM ND-1000 Spectrophotometer. QuantiTectTM Reverse Transcription Kit (Qiagen) was used to produce cDNA as directed by the manufacturer from 20 ng of starting mRNA. […] Relative changes in transcript level were normalized using UBQ10 and quantified as previously described.^41

CYP707A3 = test: qRT-PCR transcript level in mannitol stressed plants: CYP707A3; type: in vivo, Arabidopsis thaliana; conditions: 10 and 33 μM, 6 hours post-compound treatment, normalized to UBQ10
Method: as §1

CYP707A1 = test: qRT-PCR transcript level in mannitol stressed plants: CYP707A1; type: in vivo, Arabidopsis thaliana; conditions: 10 and 33 μM, 6 hours post-compound treatment, normalized to UBQ10
Method: as §1

[1] = system: ABA and catabolites in Arabidopsis thaliana Col-0 plants; test: Total ABA metabolite levels in mannitol stressed plants treated with SLCCD inhibitors; type: in vivo; conditions: for effect on ABA and catabolite pools under osmotic stress, compared with 13 (in words): whole time course
Method: For each condition to be tested, three hundred wild-type Arabidopsis thaliana Col-0 seeds (LEHLE) were sterilized, vernalized and sewn onto 200 mL of Sunshine Mix #3 (Sun Gro) potting material in an 8×8×4 cm pot. Plants were watered continuously with 25 g/100 mL of 20-20-20 (PlantProd™) fertilizer and grown at 22° C. with a 16 hour photoperiod for 22 days. Plants were pre-treated with 50 mL/pot of Buffer A (10 mM HEPES pH 6.5) (Sigma)+/−10 or 33 μM test compound for 2 hours. Plants were then soaked with 50 mL/pot of Buffer A containing 0.4 M mannitol (Sigma)+/−10 or 33 μM test compound. Non-treated/non-stressed control plants were simply soaked in Buffer A at the designated time points. […] Half of the tissue samples were lyophilized for metabolite profiling and the other half taken for quantitative reverse-transcription polymerase chain reaction (qRT-PCR) analysis.
Freeze-dried tissue was homogenized using a multi-tube ball mill (Mini-BeadBeater-96™, Biospec Products Inc., Bartlesville, Okla., USA) and 50 mg of each sample was weighed out into individual Falcon tubes. To each sample, 100 μL of a cocktail of internal standards comprised of (−)-5,8′,8′,8′-d4-ABA, (−)-7′,7′,7′-d3-PA, (−)-5,8′,8′,8′-d4-7′OH ABA, (−)-7′,7′,7′-d3-DPA and (+)-4,5,8′,8′,8′-d5-ABAGE, each at a concentration of 0.2 ng/μL and dissolved in a mixture of water:acetonitrile (1:1, v/v) with 0.5% glacial acetic acid, was added. Further, 3 mL of isopropanol:water:glacial acetic acid (80:19:1, v/v/v) extraction solvent was added, and samples were placed in the fridge (4° C., in the dark) on an orbital shaker at about 350 rpm. After 18-24 hours, the samples were centrifuged at 4.4 krpm for 10 min, the supernatant was transferred to a disposable culture tube, and a second portion of 500 μL extraction solvent mixture was added to wash the pellet. After vortexing and centrifuging again at 4.4 krpm for 10 min, each wash was combined with its appropriate supernatant. The organic extract was dried under reduced pressure, then re-dissolved in 100 μL methanol:glacial acetic acid (99:1, v/v) followed by 900 μL of aqueous 1% glacial acetic acid. This mixture was extracted with 2 mL hexane, and then the aqueous layer was dried down under reduced pressure. The sample was further reconstituted in 2 mL aqueous 1% glacial acetic acid and loaded onto an Oasis MCX SPE cartridge (3 cc, Waters Corporation, Mississauga, Ontario, Canada). After a wash with 3 mL aqueous 1% glacial acetic acid, samples were eluted with 1 mL methanol:glacial acetic acid (99:1, v/v) and then dried down under reduced pressure. The extract was re-dissolved in 100 μL methanol:glacial acetic acid (99:1, v/v) followed by 900 μL of aqueous 1% glacial acetic acid. This mixture was further cleaned on an Oasis HLB SPE cartridge (1 cc, Waters Corporation, Mississauga, Ontario, Canada). After a wash with 1 mL aqueous 1% glacial acetic acid, the fraction containing ABA and ABA metabolites was eluted with 1 mL acetonitrile:water:glacial acetic acid (30:69:1, v/v/v) and then was evaporated to dryness. The final residue was dissolved in 200 μL of acetonitrile:water (15:85, v/v) containing 0.1% glacial acetic acid and 100 pg/μL (±)-3′,5′,5′,7′,7′,7′-d6-ABA as a recovery standard. Finally, the sample was subjected to LC-ES-MS/MS analysis and quantification, as described in Owen and Abrams, 2008.^39

[2] = 33 μM inhibitor, mannitol stress

SMILES | relative expression level of AtNCED3 in mannitol stressed plants (in words) (AtNCED3) | inhibition of mannitol-induced Rd29b transcription (Rd29B) | CYP707A3 mRNA transcript level vs mannitol-stressed control (in words) (CYP707A3) | CYP707A1 mRNA transcript level vs mannitol-stressed control (in words) (CYP707A1) | total levels of ABA and catabolites ([1]; 33 μM inhibitor 2 h before and during 0.4 M mannitol stress, 24 hours, mannitol only 15147 pmol/g) | levels of ABA and catabolites at first time point (in words) ([1]; 33 μM inhibitor, mannitol stress, first 6 hours) | effect on ABA and catabolite pools under osmotic stress, compared with 13 (in words) [1, 2]
CCSCC=C(C)C#CC1(O)C(C)CC(=O)CC1(C)C (racemic) [Compound 13, (4S,5R/4R,5S)-(3′Z)-4-(5′-(Ethylthio)-3′-methylpent-3′-en-1′-ynyl)-4-hydroxy-3,3,5-trimethylcyclohexanone] | decrease the relative expression levels of AtNCED3 | about 90% | reductions in the accumulation of mRNA transcript levels | reductions in the accumulation of mRNA transcript levels | 8211 pmol/g | comparable to those of the non-treated/non-stressed control plants | 
C/C(C#C[C@@]12O[C@]1(C)C[C@@H](O)CC2(C)C)=C/CNc1ccccc1 [Compound 18, (1R,3S,6R)-(3′Z)-1,5,5-Trimethyl-6-(3′-methyl-5′-(phenylamino)-pent-3′-en-1-ynyl)-7-oxabicyclo[4.1.0]heptan-3-ol] | similar, although not as pronounced effects |  |  |  |  |  | less effective than 13
C/C(C#C[C@@]12O[C@]1(C)C[C@@H](O)CC2(C)C)=C/CSc1ccccc1 [Compound 17, (1R,3S,6R)-(3′Z)-1,5,5-Trimethyl-6-(3′-methyl-5′-(phenylthio)-pent-3′-en-1′-ynyl)-7-oxa-bicyclo[4.1.0]heptan-3-ol] | similar, although not as pronounced effects |  |  |  |  |  | less effective than 13
